Each block holds one compound with its values, some of them ahead of it.
Experiments:
[1] = Stability of analytes in rat plasma (short-term, long-term, freeze/thaw); format: in vitro ADME; details: n = 6; for Freeze/thaw (−20 °C to room temperature) RE: three cycles
Method: The stability of the samples (including QC and IS) in rat plasma was determined by placing samples (n = 6) in three settings. Of those settings, the short-term stability was determined via leaving the samples at room temperature for 24 h. For long-term stability evaluation, the samples went through 3 weeks of storage at − 20 °C before measurement. The stability of samples after freeze-thaw treatment was assessed by performing freeze/thaw cycles on each sample three times prior to analysis. The fresh samples were prepared as a negative control. The acceptable bias was considered great stability when it was within ±15%. […]

[2] = Pharmacokinetic study in rats after sublingual vein administration of parecoxib; format: in vivo; details: male, Sprague Dawley, rat plasma, sublingual vein administration of 5 mg/kg PCX, n = 6; for MRT last: read-out: MRT(0-t); for MRT inf: read-out: MRT(0-∞)
Method: The average weight range of 200–220 g male Sprague Dawley (SD) was obtained from the laboratory animal center of the Wenzhou Medical University (Wenzhou, China, License No. SCXK [ZJ] 2005–0019). Rats stayed in cages and freely got food and water under a stable temperature range of 24–26 °C and a controllable 12 h light/dark cycle apparatus. Animal protocols were approved by the Institutional animal experimentation Committee of the Wenzhou Medical University. A total of 12 SD rats were separated into two isolated groups, including the experimental group (n = 6) and the control group (n = 6). Fasting was carried out for 12 h before assays, and only water was freely accessible. The rats were treated with […] PCX intravenously, which was equivalent to 56 mg for an individual of 70 kg human body weight (regular range in the clinic is from 40 to 80 mg). 0.3 ml of blood samples were collected and stabilized in heparinized tubes at each given time point (0, 0.083, 0.167, 0.25, 0.5, 0.75, 1, 2, 3, 4, 6, 8, 10, 12 and 24 h). The plasma samples were separated through centrifugation at 3000 r/min for 10 min and carefully collected the supernatant and stored at − 20 °C before analysis. All pharmacokinetic data were analyzed by the DAS (Drug and Statistics) software. All rats were sacrificed by CO2 inhalation.
In the clinic, the recommended dose of PCX was 40 mg per patient, i.m. or i.v., and the total daily dose was not more than 80 mg. In the present study, a dose of 5 mg/kg PCX was injected to rats by i.v., which was equivalent to 56 mg for an individual of 70 kg body weight (range of 40–80 mg). The UPLC-MS/MS has effectively monitored the pharmacokinetic changes after administration of […] PCX. Further, the pharmacokinetic parameters were figured out by using the DAS 3.0 software.

[3] = design: method as in PMID 11519767; details: control of acute pain, specific dose of PCX; cited from earlier work
[4] = design: method as in PMID 29843006; details: cited from earlier work
[5] = system: plasma proteins; details: cited from earlier work

Long-term (−20 °C, 3 weeks) RE ([1]; 200 ng/mL): −1.3%
Short-term (room temperature, 24 h) RE ([1]; 200 ng/mL): 7.5%
Freeze/thaw (−20 °C to room temperature) RE ([1]; 200 ng/mL): 5.8%
SMILES: Cc1ccc(-c2cc(C(F)(F)F)nn2-c2ccc(S(N)(=O)=O)cc2)cc1 [Celecoxib]

AUC(0-inf) [2]: 2110 ± 283 ng·h/mL
AUC(0-t) [2]: 2110 ± 282 ng·h/mL
Cmax [2]: 5070 ± 1210 ng/mL
Tmax [2]: 0.1 h
clearance [2]: 40 mL/min/kg
half-life [2]: 1.4 ± 0.5 h
MRT last [2]: 0.4 ± 0.1 h
MRT inf [2]: 0.4 ± 0.1 h
Long-term (−20 °C, 3 weeks) RE ([1]; 100 ng/mL): 14.2%
Short-term (room temperature, 24 h) RE ([1]; 100 ng/mL): 13.0%
Freeze/thaw (−20 °C to room temperature) RE ([1]; 100 ng/mL): 14.9%
Long-term (−20 °C, 3 weeks) RE ([1]; 800 ng/mL): 12.7%
Short-term (room temperature, 24 h) RE ([1]; 800 ng/mL): 10.2%
Freeze/thaw (−20 °C to room temperature) RE ([1]; 800 ng/mL): 14.2%
Long-term (−20 °C, 3 weeks) RE ([1]; 8000 ng/mL): 14.3%
Short-term (room temperature, 24 h) RE ([1]; 8000 ng/mL): −10.5%
Freeze/thaw (−20 °C to room temperature) RE ([1]; 8000 ng/mL): −7.9%
SMILES: CCC(=O)NS(=O)(=O)c1ccc(-c2c(-c3ccccc3)noc2C)cc1 [Parecoxib]
onset of analgesia [3]: 7 to 14 min
time to peak analgesic effect [3]: ≤ 2 h

AUC(0-inf) [2]: 4370 ± 1530 ng·h/mL
AUC(0-t) [2]: 4190 ± 1590 ng·h/mL
Cmax [2]: 701 ± 92.6 ng/mL
Tmax [2]: 0.8 ± 0.2 h
clearance [2]: 20 mL/min/kg
half-life [2]: 3.1 ± 1.1 h
MRT last [2]: 4.1 ± 1 h
MRT inf [2]: 4.8 ± 1.1 h
Long-term (−20 °C, 3 weeks) RE ([1]; 5 ng/mL): −1.4%
Short-term (room temperature, 24 h) RE ([1]; 5 ng/mL): −6.7%
Freeze/thaw (−20 °C to room temperature) RE ([1]; 5 ng/mL): 5.2%
Long-term (−20 °C, 3 weeks) RE ([1]; 40 ng/mL): 13.2%
Short-term (room temperature, 24 h) RE ([1]; 40 ng/mL): 12%
Freeze/thaw (−20 °C to room temperature) RE ([1]; 40 ng/mL): 14.2%
Long-term (−20 °C, 3 weeks) RE ([1]; 400 ng/mL): 3.2%
Short-term (room temperature, 24 h) RE ([1]; 400 ng/mL): 3.2%
Freeze/thaw (−20 °C to room temperature) RE ([1]; 400 ng/mL): 9.5%
SMILES: Cc1onc(-c2ccccc2)c1-c1ccc(S(N)(=O)=O)cc1 [Valdecoxib]
fraction of VCX in the circulation metabolized to hydroxylated VCX [4]: approximately 10%
bound to plasma proteins [5]: 98%

— article PMC7137270, “Determination of parecoxib and valdecoxib in rat plasma by UPLC-MS/MS and its application to pharmacokinetics studies” (BMC Pharmacology & Toxicology, 2020)
